Results as given in ChEMBL document CHEMBL1681742, “Novel second generation analogs of eribulin. Part I: Compounds containing a lipophilic C32 side chain overcome P-glycoprotein susceptibility” (Bioorg Med Chem Lett, 2011).
Activity calls are given as the source filed them. No cut-off for these calls is given here.

Legend:
[1] = Fold resistance, ratio of IC50 for antiproliferative activity for P-gp overexpressing human MES-SA/Dx5-Rx1cells to IC50 for antiproliferative activity for human MES-SA cells
[2] = Antiproliferative activity against P-gp overexpressing human MES-SA/Dx5-Rx1 cells assessed as growth inhibition; type: functional
[3] = Antiproliferative activity against human MES-SA cells assessed as growth inhibition; type: functional, cell-based
[4] = Cytotoxicity against human IMR90 cells up to 1 uM; type: cell-based; settings: imr-90
HCT-15 = experiment: Antiproliferative activity against human HCT15 cells assessed as growth inhibition; type: functional, cell-based
LOX [5] = experiment: Antitumor activity against human LOX cells xenografted in athymic mouse assessed as inhibition of tumor growth at 0.1 mg/kg, iv qd administered 5 days a week for 2 weeks measured up to 2 weeks; type: functional, organism-based; set-up: dose 0.1 mg/kg
DLD-1 = experiment: Antiproliferative activity against human DLD1 cells assessed as growth inhibition; type: functional, cell-based
Mus musculus [6] = experiment: Toxicity in athymic mouse xenografted with human LOX cells assessed as reduction in water uptake at 0.1 mg/kg, iv qd administered 5 days a week for 2 weeks; type: organism-based; set-up: dose 0.1 mg/kg, route intravenous; settings: in vivo
Mus musculus [7] = experiment: Toxicity in athymic mouse xenografted with human LOX cells assessed as body weight loss at 0.1 mg/kg, iv qd administered 5 days a week for 2 weeks; type: organism-based; set-up: dose 0.1 mg/kg, route intravenous; settings: in vivo
LOX [8] = experiment: Antitumor activity against human LOX cells xenografted in athymic mouse assessed as inhibition of tumor growth at 0.1 mg/kg, iv qd administered 5 days a week for 2 weeks measured after 2 weeks; type: functional, organism-based; set-up: dose 0.1 mg/kg

Row | SMILES | IC50 (HCT-15) [nM] | IC50 (DLD-1) [nM] | Ratio IC50 [1] | IC50 [2] [nM] | IC50 [3] [nM] | Activity [4] | Activity (LOX [5]) | Activity (Mus musculus [6]) | Activity (Mus musculus [7]) | Activity (LOX [8])
1 | C=C1C[C@@H]2CC[C@@]34C[C@H]5O[C@H]6[C@@H](O3)[C@H]3O[C@H](CC[C@@H]3O[C@H]6[C@H]5O4)CC(=O)C[C@@H]3[C@@H](OC)[C@@H](C[C@H](O)CN)O[C@H]3C[C@H]3O[C@@H](CC[C@@H]1O2)C[C@@H](C)C3=C [ERIBULIN] | 204 | 20 | 1842 | 3060 | 1.66 | Non-toxic | Active |  |  | 
2 | C=C1C[C@@H]2CC[C@@]34C[C@H]5O[C@H]6[C@@H](O3)[C@H]3O[C@H](CC[C@@H]3O[C@H]6[C@H]5O4)CC(=O)C[C@@H]3[C@@H](OC)[C@@H](C[C@H](O)COC)O[C@H]3C[C@H]3O[C@@H](CC[C@@H]1O2)C[C@@H](C)C3=C | 0.2 | 0.27 | 17.09 | 2.82 | 0.17 | Non-toxic | Active | Non-toxic | Non-toxic | inactive
3 | C=C1C[C@@H]2CC[C@@]34C[C@H]5O[C@H]6[C@@H](O3)[C@H]3O[C@H](CC[C@@H]3O[C@H]6[C@H]5O4)CC(=O)C[C@@H]3[C@@H](OC)[C@@H](C[C@@H](COC)OC)O[C@H]3C[C@H]3O[C@@H](CC[C@@H]1O2)C[C@@H](C)C3=C | 0.21 | 0.36 | 7.76 | 1.86 | 0.24 | Non-toxic | Active | Non-toxic | Non-toxic | inactive
4 | C=C1C[C@@H]2CC[C@@]34C[C@H]5O[C@H]6[C@@H](O3)[C@H]3O[C@H](CC[C@@H]3O[C@H]6[C@H]5O4)CC(=O)C[C@@H]3[C@@H](OC)[C@@H](CC(=O)COC)O[C@H]3C[C@H]3O[C@@H](CC[C@@H]1O2)C[C@@H](C)C3=C | 0.62 | 0.67 | 6.7 | 2.92 | 0.44 | Non-toxic |  |  |  | 
5 | C=CCO[C@H](CO)C[C@H]1O[C@H]2C[C@H]3O[C@@H](CC[C@@H]4O[C@@H](CC[C@@]56C[C@H]7O[C@H]8[C@@H](O5)[C@H]5O[C@H](CC[C@@H]5O[C@H]8[C@H]7O6)CC(=O)C[C@@H]2[C@H]1OC)CC4=C)C[C@@H](C)C3=C | 0.22 | 0.2 | 17.19 | 4.13 | 0.24 | Non-toxic |  |  |  | 

Further compounds by falling IC50 (HCT-15), results first:

Row | IC50 (HCT-15) [nM] | IC50 (DLD-1) [nM] | SMILES | Ratio IC50 [1] | IC50 [2] [nM] | IC50 [3] [nM] | Activity [4] | Activity (LOX [5]) | Activity (Mus musculus [6]) | Activity (Mus musculus [7]) | Activity (LOX [8])
6 | 0.83 | 1.46 | C#CC[C@H]1O[C@H]2C[C@H]3O[C@@H](CC[C@@H]4O[C@@H](CC[C@@]56C[C@H]7O[C@H]8[C@@H](O5)[C@H]5O[C@H](CC[C@@H]5O[C@H]8[C@H]7O6)CC(=O)C[C@@H]2[C@H]1OC)CC4=C)C[C@@H](C)C3=C | 2.75 | 2.01 | 0.73 | Non-toxic |  |  |  | 
7 | 0.68 | 1.43 | C=C1C[C@@H]2CC[C@@]34C[C@H]5O[C@H]6[C@@H](O3)[C@H]3O[C@H](CC[C@@H]3O[C@H]6[C@H]5O4)CC(=O)C[C@@H]3[C@@H](OC)[C@@H](CCC#N)O[C@H]3C[C@H]3O[C@@H](CC[C@@H]1O2)C[C@@H](C)C3=C | 3.88 | 2.91 | 0.75 | Non-toxic |  |  |  | 
8 | 0.61 | 1.05 | C=C1C[C@@H]2CC[C@@]34C[C@H]5O[C@H]6[C@@H](O3)[C@H]3O[C@H](CC[C@@H]3O[C@H]6[C@H]5O4)CC(=O)C[C@@H]3[C@@H](OC)[C@@H](C[C@@H](CC#N)OC)O[C@H]3C[C@H]3O[C@@H](CC[C@@H]1O2)C[C@@H](C)C3=C | 9.86 | 3.9 | 0.4 | Non-toxic |  |  |  | 
9 | 0.4 | 0.47 | C=C1C[C@@H]2CC[C@@]34C[C@H]5O[C@H]6[C@@H](O3)[C@H]3O[C@H](CC[C@@H]3O[C@H]6[C@H]5O4)CC(=O)C[C@@H]3[C@@H](OC)[C@@H](CCCO)O[C@H]3C[C@H]3O[C@@H](CC[C@@H]1O2)C[C@@H](C)C3=C | 18.88 | 5.67 | 0.3 | Non-toxic |  |  |  | 
10 | 0.24 | 0.38 | C=C1C[C@@H]2CC[C@@]34C[C@H]5O[C@H]6[C@@H](O3)[C@H]3O[C@H](CC[C@@H]3O[C@H]6[C@H]5O4)CC(=O)C[C@@H]3[C@@H](OC)[C@@H](CCOC)O[C@H]3C[C@H]3O[C@@H](CC[C@@H]1O2)C[C@@H](C)C3=C | 4.08 | 0.78 | 0.19 | Non-toxic |  |  |  | 
11 | 0.23 | 0.27 | C=C1C[C@@H]2CC[C@@]34C[C@H]5O[C@H]6[C@@H](O3)[C@H]3O[C@H](CC[C@@H]3O[C@H]6[C@H]5O4)CC(=O)C[C@@H]3[C@@H](OC)[C@@H](C[C@H](O)COCC)O[C@H]3C[C@H]3O[C@@H](CC[C@@H]1O2)C[C@@H](C)C3=C | 11.2 | 2.24 | 0.2 | Non-toxic |  |  |  | 
